Measurements from ChEMBL document CHEMBL4699460, “Integrating DNA-encoded chemical libraries with virtual combinatorial library screening: Optimizing a PARP10 inhibitor” (Bioorg Med Chem Lett, 2020).

What was measured:
[1] = target: T1, Protein mono-ADP-ribosyltransferase PARP10 (Homo sapiens) (UniProt Q53GL7); assay: (§1) Inhibition of N-terminal FLAG-tagged and C-terminal strep-tagged human PARP10 (805 to 1025 residues) expressed in baculovirus infected Sf9 cells assessed as reduction in NAD+-dependent ADP ribosylation using histone as substrate at 10 uM incubated for 1 hr in presence of biotinylated NAD+ and activated DNA by chemiluminescence based microplate reader assay relative to control
T1 sequence (whole entry): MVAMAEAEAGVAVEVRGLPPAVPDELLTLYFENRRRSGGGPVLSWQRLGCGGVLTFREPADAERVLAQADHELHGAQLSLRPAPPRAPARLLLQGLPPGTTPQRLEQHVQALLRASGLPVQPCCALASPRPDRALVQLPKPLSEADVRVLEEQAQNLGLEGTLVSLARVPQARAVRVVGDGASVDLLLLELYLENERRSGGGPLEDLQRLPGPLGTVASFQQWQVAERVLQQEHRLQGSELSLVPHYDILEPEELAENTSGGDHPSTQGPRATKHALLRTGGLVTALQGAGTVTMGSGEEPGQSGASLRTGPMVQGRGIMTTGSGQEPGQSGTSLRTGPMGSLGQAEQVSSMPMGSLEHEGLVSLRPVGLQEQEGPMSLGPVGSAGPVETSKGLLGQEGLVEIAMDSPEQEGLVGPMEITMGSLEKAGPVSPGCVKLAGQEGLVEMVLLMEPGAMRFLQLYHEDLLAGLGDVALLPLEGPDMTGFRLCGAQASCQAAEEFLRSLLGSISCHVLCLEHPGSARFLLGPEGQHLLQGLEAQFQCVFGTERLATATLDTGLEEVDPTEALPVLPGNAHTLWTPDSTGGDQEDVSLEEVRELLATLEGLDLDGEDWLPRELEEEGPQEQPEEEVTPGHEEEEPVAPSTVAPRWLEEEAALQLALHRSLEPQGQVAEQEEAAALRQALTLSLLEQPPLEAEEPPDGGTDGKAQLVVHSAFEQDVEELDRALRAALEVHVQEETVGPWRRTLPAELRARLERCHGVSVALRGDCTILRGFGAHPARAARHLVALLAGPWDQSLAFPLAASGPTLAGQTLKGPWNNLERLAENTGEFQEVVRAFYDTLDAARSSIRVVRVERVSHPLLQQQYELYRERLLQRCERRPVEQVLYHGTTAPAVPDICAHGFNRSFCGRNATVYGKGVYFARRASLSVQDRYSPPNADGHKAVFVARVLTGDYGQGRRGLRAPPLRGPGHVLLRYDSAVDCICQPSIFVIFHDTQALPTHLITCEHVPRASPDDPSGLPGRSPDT

[2] = target: Protein mono-ADP-ribosyltransferase PARP14 (Homo sapiens) (UniProt Q460N5); assay: as §1, with “His-GST tagged” for “FLAG-tagged and C-terminal strep-tagged”, “PARP14 (1470” for “PARP10 (805”, “1801” for “1025”, “1” for “10”
[3] = target: T1, Protein mono-ADP-ribosyltransferase PARP10 (Homo sapiens); assay: as §1, with “at 1” for “at 10”, “assay” for “assay relative to control”
[4] = target: Protein mono-ADP-ribosyltransferase PARP14 (Homo sapiens) (UniProt Q460N5); assay: as §1, with “His-GST tagged” for “FLAG-tagged and C-terminal strep-tagged”, “PARP14 (1470” for “PARP10 (805”, “1801” for “1025”

Sequence of Protein mono-ADP-ribosyltransferase PARP14 (Homo sapiens) (Q460N5 whole entry): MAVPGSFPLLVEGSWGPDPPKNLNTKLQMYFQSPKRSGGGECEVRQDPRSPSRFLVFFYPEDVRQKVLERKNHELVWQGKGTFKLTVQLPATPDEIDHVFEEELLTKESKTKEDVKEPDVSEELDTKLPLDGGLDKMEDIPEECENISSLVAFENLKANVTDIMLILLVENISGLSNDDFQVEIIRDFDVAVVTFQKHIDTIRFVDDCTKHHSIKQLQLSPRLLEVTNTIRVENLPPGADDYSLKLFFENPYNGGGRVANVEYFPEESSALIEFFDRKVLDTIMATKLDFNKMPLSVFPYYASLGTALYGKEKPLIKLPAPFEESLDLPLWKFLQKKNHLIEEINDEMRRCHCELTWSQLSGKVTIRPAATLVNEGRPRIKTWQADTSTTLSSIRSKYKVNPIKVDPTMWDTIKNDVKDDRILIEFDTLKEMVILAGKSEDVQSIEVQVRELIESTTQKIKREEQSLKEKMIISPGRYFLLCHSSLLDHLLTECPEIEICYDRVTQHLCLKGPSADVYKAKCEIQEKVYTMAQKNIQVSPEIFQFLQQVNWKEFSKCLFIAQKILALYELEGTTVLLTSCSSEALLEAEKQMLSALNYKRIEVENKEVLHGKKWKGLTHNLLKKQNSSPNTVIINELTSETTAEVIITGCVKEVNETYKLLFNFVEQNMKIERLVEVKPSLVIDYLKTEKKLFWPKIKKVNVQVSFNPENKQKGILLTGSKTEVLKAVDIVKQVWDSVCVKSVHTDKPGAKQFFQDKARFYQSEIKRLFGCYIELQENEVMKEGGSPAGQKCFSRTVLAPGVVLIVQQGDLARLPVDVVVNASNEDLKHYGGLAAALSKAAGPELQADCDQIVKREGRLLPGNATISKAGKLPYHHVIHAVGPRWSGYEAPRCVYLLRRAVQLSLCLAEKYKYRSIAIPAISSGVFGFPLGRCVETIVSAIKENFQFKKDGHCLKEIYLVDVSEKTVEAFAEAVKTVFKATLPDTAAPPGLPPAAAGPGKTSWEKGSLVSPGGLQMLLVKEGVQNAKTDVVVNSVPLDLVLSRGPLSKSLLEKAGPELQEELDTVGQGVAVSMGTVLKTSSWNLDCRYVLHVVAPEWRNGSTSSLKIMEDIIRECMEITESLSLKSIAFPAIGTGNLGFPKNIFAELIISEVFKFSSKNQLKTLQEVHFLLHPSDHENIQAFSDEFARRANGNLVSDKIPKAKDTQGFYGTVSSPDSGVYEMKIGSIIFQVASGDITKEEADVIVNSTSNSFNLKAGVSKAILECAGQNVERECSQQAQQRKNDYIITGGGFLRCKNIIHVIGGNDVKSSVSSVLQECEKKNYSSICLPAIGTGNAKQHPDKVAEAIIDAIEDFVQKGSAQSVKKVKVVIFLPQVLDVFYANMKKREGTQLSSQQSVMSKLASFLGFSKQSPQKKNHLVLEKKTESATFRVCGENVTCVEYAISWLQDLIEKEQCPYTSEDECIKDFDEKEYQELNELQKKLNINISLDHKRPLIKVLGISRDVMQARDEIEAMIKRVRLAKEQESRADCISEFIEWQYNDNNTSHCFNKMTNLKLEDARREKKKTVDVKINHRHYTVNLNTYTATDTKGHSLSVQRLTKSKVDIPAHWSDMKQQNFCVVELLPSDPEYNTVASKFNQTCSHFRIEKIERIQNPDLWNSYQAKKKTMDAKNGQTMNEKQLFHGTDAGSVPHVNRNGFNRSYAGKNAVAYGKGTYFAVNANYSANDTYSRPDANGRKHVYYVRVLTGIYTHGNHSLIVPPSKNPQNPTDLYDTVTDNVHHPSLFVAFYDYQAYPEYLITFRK

Structure (SMILES) | inhibition [1] [%] | inhibition [2] [%] | inhibition [3] [%] | inhibition [4] [%]
CC1(CNC(=O)COc2cccc3c2CCCC3=O)CCN(C(=O)CCc2nc3ccccc3[nH]c2=O)CC1 | 90 | 21 | 25 | –
CNC(=O)[C@H](CNC(=O)CCc1nc2ccccc2[nH]c1=O)NC(=O)c1ccc2c(c1)CCCC2=O | – | – | – | < 25
